# Data taken from US20070111889A1, “6-(Aminocarbonyl-phenyl)triazolopyrimidines, methods for the production thereof, use thereof for controlling harmful fungi, and substances containing the same” (BASF Aktiengesellschaft, priority 2003, published 2007).
# Key:
# Plasmopara viticola = experiment: Activity against Peronospora of vines caused by Plasmopara viticola (protective spray, potted vines); type: in vivo; conditions: 250 ppm; vines cultivar Riesling; inoculated the day after spraying; assessed visually; untreated plants 90% infected
# Procedure: The active compounds were prepared as a stock solution with 0.25% by weight of active compound in acetone or DMSO. 1% by weight of the emulsifier Uniperol® EL (wetting agent having emulsifying and dispersing action based on ethoxylated alkylphenols) was added to this solution, and the mixture was diluted with water to the desired concentration.
# Leaves of potted vines of the cultivar “Riesling” were sprayed to runoff point with an aqueous suspension having the concentration of active compounds stated below. The next day, the undersides of the leaves were inoculated with an aqueous zoospore suspension of Plasmopara viticola. The vines were then initially placed in a water-vapor-saturated chamber at 24° C. for 48 hours and then in a greenhouse at temperatures of between 20 and 30° C. for 5 days. After this time, the plants were again placed in a moist chamber for 16 hours to promote sporangiophore eruption. The extent of the development of the infection on the undersides of the leaves was then determined visually.
# Pyrenophora teres = experiment: Activity against net blotch of barley caused by Pyrenophora teres (protective spray, barley seedlings); type: in vivo, Pyrenophora [syn. Drechslera] teres; conditions: 63 ppm; barley cultivar Hanna; inoculated 24 h after spraying; assessed visually after 6 days; untreated plants 90% infected
# Procedure: The active compounds were prepared as a stock solution with 0.25% by weight of active compound in acetone or DMSO. 1% by weight of the emulsifier Uniperol® EL (wetting agent having emulsifying and dispersing action based on ethoxylated alkylphenols) was added to this solution, and the mixture was diluted with water to the desired concentration. Leaves of pot-grown barley seedlings of the cultivar “Hanna” were sprayed to runoff point with an aqueous suspensiori having the concentration of active compound stated below. 24 hours after the spray coating had dried on, the test plants were inoculated with an aqueous spore suspension of Pyrenophora [syn. Drechslera] teres, the causative agent of net blotch. The test plants were subsequently placed in a greenhouse at temperatures of between 20 and 24° C. and at a relative atmospheric humidity of 95 to 100%. After 6 days, the extent of the development of the disease was determined visually in % of infection of the total leaf area.
compound,measurement,setting,value
"CC1CCN(c2c(-c3c(F)cc(C(N)=O)cc3F)c(Cl)nc3ncnn23)CC1 [I-1, 5-chloro-6-(2,6-difluoro-4-aminocarbonylphenyl)-7-(4-methylpiperidin-1-yl)-[1,2,4]-triazolo[1,5-a]pyrimidine]",infection on the undersides of the leaves,Plasmopara viticola,no infection
same,infection (% of infection of the total leaf area),Pyrenophora teres,about 3%
